Source: patent US20230330112A1, “COMPOSITION AND TREATMENT FOR CANCER WITH MUTATIONS” (BRIDGE BIOTHERAPEUTICS, INC., priority 2022, published 2023)

Experiments:
[1] = tested on: Ba/F3 EGFR 19Del/C797S xenograft; test: Ba/F3 EGFR 19Del/C797S xenograft study; type: in vivo, mouse; conditions: even at 25 mg/kg
Protocol: (§1) For Ba/F3 EGFR 19Del/C797S and EGFR 19Del/T790M/C797S xenografts models, each mouse was inoculated subcutaneously at the right flank with cells (0.5×10^6) in 0.1 mL of PBS supplemented with BD Matrigel (1:1) for tumor development. The animals were randomized, and treatment was started when the average tumor volume reached 150-180 mm^3 for the efficacy study.
(§2) Tumor volumes were measured twice weekly in two dimensions using a caliper, and the volume was expressed in mm^3 using the formula: volume=0.5 a×b^2 where a and b are the long and short diameters of the tumor, respectively. The tumor sizes were then used for the calculations of T/C (treatment/control) values. The tumor volume was used for calculation of tumor growth index (TGI) of each group according to the following formula: TGI (%)=[1-(Tti-Tt0)/(Vci-Vc0)]×100. The bodyweight of mice was measured daily for the dosing phase, and the relative change of bodyweight (RCBW) of each mouse according to the following formula: […]

[2] = tested on: Ba/F3 EGFR 19Del/T790M/C797S xenografts; test: Ba/F3 EGFR 19Del/T790M/C797S xenograft study; type: in vivo, mouse; conditions: even at 25 mg/kg
Protocol: as §1, §2

Structure (SMILES): C=CC(=O)Nc1cc(Nc2nccc(-c3cn(C)c4ccccc34)n2)c(OC)cc1N(C)CCN(C)C [osimertinib, reference compound]
- tumor growth [1]: did not block the tumor growth
- tumor growth [2]: did not block the tumor growth
